Earlier results on three substances are cited in patent publication US7879804B2, “Blood pressure lowering peptides in a single enzymatic step” (DSM IP Assets B.V., priority 2004, dated 2011).

The test system of data set [1] is spontaneously hypertensive rats. As to conditions: Nakamura et al. 1995.
The target of data set [2] is ACE (Homo sapiens, UniProt P12821). Particulars: for ACE inhibiting activities: in vitro, as reported in the literature.
ACE, sequence (P12821 30-1306, species assumed): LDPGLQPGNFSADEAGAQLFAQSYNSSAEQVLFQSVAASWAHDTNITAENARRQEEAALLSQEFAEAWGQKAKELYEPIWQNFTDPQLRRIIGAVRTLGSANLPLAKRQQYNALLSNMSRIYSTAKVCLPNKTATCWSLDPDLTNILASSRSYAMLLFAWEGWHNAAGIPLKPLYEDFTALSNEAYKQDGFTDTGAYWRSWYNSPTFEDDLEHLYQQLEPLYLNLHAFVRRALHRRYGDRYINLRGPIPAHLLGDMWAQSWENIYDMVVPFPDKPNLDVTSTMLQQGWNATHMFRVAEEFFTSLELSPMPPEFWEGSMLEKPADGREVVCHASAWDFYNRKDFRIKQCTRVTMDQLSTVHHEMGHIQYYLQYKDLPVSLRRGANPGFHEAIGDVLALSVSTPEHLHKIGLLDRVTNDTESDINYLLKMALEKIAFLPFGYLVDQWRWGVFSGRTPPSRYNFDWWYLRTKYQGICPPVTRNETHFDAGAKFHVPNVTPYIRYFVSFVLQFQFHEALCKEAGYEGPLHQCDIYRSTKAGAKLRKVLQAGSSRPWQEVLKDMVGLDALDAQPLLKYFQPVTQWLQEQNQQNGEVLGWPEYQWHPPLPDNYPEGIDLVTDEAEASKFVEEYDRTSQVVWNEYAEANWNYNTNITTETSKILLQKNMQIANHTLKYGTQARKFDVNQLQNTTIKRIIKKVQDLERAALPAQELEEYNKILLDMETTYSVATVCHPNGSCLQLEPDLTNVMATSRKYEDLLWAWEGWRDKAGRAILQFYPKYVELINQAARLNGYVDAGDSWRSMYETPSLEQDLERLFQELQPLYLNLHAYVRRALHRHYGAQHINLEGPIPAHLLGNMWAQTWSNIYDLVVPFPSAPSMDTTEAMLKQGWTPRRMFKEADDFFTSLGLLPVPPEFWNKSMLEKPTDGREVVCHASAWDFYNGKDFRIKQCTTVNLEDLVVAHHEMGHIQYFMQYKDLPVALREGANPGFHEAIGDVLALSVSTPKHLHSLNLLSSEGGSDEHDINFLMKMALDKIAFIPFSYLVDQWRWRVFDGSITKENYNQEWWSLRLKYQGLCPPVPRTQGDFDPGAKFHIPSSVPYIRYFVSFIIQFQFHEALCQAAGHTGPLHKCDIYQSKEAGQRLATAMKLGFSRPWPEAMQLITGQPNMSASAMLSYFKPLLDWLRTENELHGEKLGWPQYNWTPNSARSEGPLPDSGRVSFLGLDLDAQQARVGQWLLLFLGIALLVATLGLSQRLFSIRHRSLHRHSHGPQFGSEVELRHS

Consider Ile-Pro-Pro [IPP], for which, in data set [1], the antihypertensive effects result is on record as “confirmed”. Further, the ACE inhibiting activities result in data set [2] is “Strong”.

As to Val-Pro-Pro [VPP], the antihypertensive effects entry in data set [1] was “confirmed”. For the same substance, the IC50 (commonly the point on the concentration scale where inhibition reaches its midpoint) in data set [2] (ACE inhibition, reported by EP 0 583 074) is 9 µM. The ACE inhibiting activities result in data set [2] is given as “Strong”.

In the case of Leu-Pro-Pro [LPP], the ACE inhibiting activities result in data set [2] is on record as “Strong”.
